The text below walks through data of US20260174829A1, “METHODS OF REDUCING TYPE 2 CYTOKINE-MEDIATED INFLAMMATION USING NEUROMEDIN PEPTIDES” (Rutgers, The State University of New Jersey, priority 2018, published 2026).

B1: IL-33: cytokine known to promote ILC2 activation (protein, UniProt O95760 1-270, looked up)
Interleukin-33: MKPKMKYSTNKISTAKWKNTASKALCFKLGKSQQKAKEVCPMYFMKLRSGLMIKKEACYFRRETTKRPSLKTGRKHKRHLVLAACQQQSTVECFAFGISGVQKYTRALHDSSITGISPITEYLASLSTYNDQSITFALEDESYEIYVEDLKKDEKKDKVLLSYYESQHPSNESGDGVDGKMLMVTLSPTKDFWLHANNKEHSVELHKCEKPLPDQAFFVLHNMHSNCVSFECKTDPGVFIGVKDNHLALIKVDSSENLCTENILFKLSET
B2: IL-4: cytokine known to promote ILC2 activation (protein, UniProt P05112 25-153, looked up)
Interleukin-4: HKCDITLQEIIKTLNSLTEQKTLCTELTVTDIFAASKNTTEKETFCRAATVLRQFYSHHEKDTRCLGATAQQFHRHKQLIRFLKRLDRNLWGLAGLNSCPVKEANQSTLENFLERLKTIMREKYSKCSS
B3: IL-25: activating cytokine used in ILC2 cultures (protein, UniProt Q9H293 33-177, looked up)
Interleukin-25: YSHWPSCCPSKGQDTSEELLRWSTVPVPPLEPARPNRHPESCRASEDGPLNSRAISPWRYELDRDLNRLPQDLYHARCLCPHCVSLQTGSHMDPRGNSELLYHNQTVFYRRPCHGEKGTHKGYCLERRLYRVSLACVCVRPRVMG

In the first assay the test system is TH2 cells. Briefly: Anti-CD3/anti-CD28 stimulated lymph node cells (day 7 post-Nb), IL-5/IL-13 ELISA. Type of assay: cell-based, mouse. Conditions: LN cells day 7 post-Nb, anti-CD3 and anti-CD28, 48 hours. As for the experimental part:
FIGS. 7A-7I. Nmb treatment is sufficient to suppress allergic airway inflammation. Mice challenged with papain were treated with PBS or Nmb (i.t.) and (A) Lung ILC2s, (B) IL-5+ and IL-13+ ILC2s, and (C) eosinophils were evaluated. […] Mesenteric lymph nodes (MLNs) were isolated on day 7 post-Nb and single cells suspensions were treated with anti-CD3 and anti-CD28 in the presence or absence of Nmb for 48 hours and (E), IL-5 and (F) IL-13 were quantified in cell-free supernatants by ELISA. (F-I), Modified versions of Nmb (see Table 2) were tested for their ability to alter IL-5 and IL-13 production from anti-CD3 and anti-CD28 MLN cells isolated on day 7 post-Nb. P values were determined by two-tailed Student's t-tests. Blue asterisks represent comparisons between media treated controls and native Nmb. Red asterisks represent comparisons between media treated controls and modified version of Nmb as described in Table 2. (*,p<0.05), (**,p<0.01), (***,p<0.001) or (F-I).
FIGS. 8A-8B. Mesenteric lymph nodes (MLNs) were isolated on day 7 post-Nb and single cells suspensions were treated with anti-CD3 and anti-CD28 in the presence or absence of native Nmb or modified versions of the peptide for 48 hours and (A), IL-5 and (B) IL-13 were quantified in cell-free supernatants by ELISA. P values were determined by two-tailed Student's t-tests. Blue asterisks represent comparisons between media treated controls and native Nmb. Red asterisks represent comparisons between media treated controls and modified version of Nmb as described in Table 2. (*,p<0.05), (**,p<0.01), (***,p<0.001).
At the time points evaluated post-Nb, the majority of the type 2 cytokines are ILC2-derived (14) and any effects Nmb is having on TH2 cell responses may be difficult to detect. To address this, lung-draining LNs were isolated on day 7 post-Nb and stimulated with anti-CD3 and -CD28 to activate T cells in both the presence of absence of recombinant Nmb. LN cells treated with anti-CD3 and -CD28 produced increased amounts of IL-5, and IL-13 (FIGS. 7D, 7E).
Thus, Nmb can be employed to reduce type 2 cytokine-mediated inflammation. Native Nmb is a 10-mer peptide (SEQ ID NO: 1) that operates via its ability to bind the Nmb receptor (15). This example describes the results of an alanine scan to systematically replace various residues of the Nmb with alanine (Table 2) and the resulting ability of the variant Nmb peptides to inhibit type 2 cytokine production by TH2 cells. Further, caps were added to the native form of Nmb (SEQ ID NO: 1) and its bioactivity monitored (FIG. 5A).
For orientation: An ELISA detects its analyte on a solid surface through an enzyme-linked reagent.
Consider “Ac-GLLWATGHFM-amide (Ac-GLLWATGHFM-NH2) [J]”, for which the “capacity to inhibit IL-13 production compared to native Nmb” value is “significantly greater capacity”.
The same measure, in the same setting: under H2N-ANLWATGHFM-amide (H-ANLWATGHFM-NH2) stands “significantly greater capacity”; under H2N-ATGHFM-amide (H-ATGHFM-NH2) [AI], “enhanced capacity”.
Same read-out and setting: under “H2N-GALWATGHFM-amide (H-GALWATGHFM-NH2) [B]” stands “significantly greater capacity”.
For the molecule “H2N-GLWATGHFM-amide (H-GLWATGHFM-NH2) [O]”, the “capacity to inhibit IL-5 production compared to native Nmb” value is recorded as “reduced capacity”.
For the molecule “H2N-GNAWATGHFM-amide (H-GNAWATGHFM-NH2) [C]”, the “capacity to inhibit IL-5 production compared to native Nmb” value is given as “significantly reduced capacity” and the “capacity to inhibit IL-13 production compared to native Nmb” value is listed as “significantly greater capacity”.
Regarding H2N-GNLAATGHFM-amide (H-GNLAATGHFM-NH2), the “capacity to inhibit IL-13 production compared to native Nmb” value was “significantly greater capacity”.
For H2N-GNLWATAHFM-amide (H-GNLWATAHFM-NH2), the “capacity to inhibit IL-5 production compared to native Nmb” value is reported as “significantly reduced capacity” and the “capacity to inhibit IL-13 production compared to native Nmb” value is given as “significantly reduced capacity”.
As for H2N-GNLWATG-amide (H-GNLWATG-NH2) [AA], the “capacity to inhibit IL-5 production compared to native Nmb” value was “significant enhanced capacity” and the “capacity to inhibit IL-13 production compared to native Nmb” value is given as “enhanced capacity”.
On to “H2N-GNLWATGFM-amide (H-GNLWATGFM-NH2) [U]”, for which the “capacity to inhibit IL-5 production compared to native Nmb” value is given as “reduced capacity”.
As to H2N-GNLWATGH-amide (H-GNLWATGH-NH2) [X], the “capacity to inhibit IL-5 production compared to native Nmb” value is given as “significant enhanced capacity” and the “capacity to inhibit IL-13 production compared to native Nmb” value was “enhanced capacity”.
With H2N-GNLWATGHAM-amide (H-GNLWATGHAM-NH2), the “capacity to inhibit IL-13 production compared to native Nmb” value is “significantly reduced capacity”.
On to H2N-GNLWATGHF-amide (H-GNLWATGHF-NH2), for which the “capacity to inhibit IL-5 production compared to native Nmb” value is “reduced capacity”.
As to H2N-GNLWATGHFA-amide (H-GNLWATGHFA-NH2), the “capacity to inhibit IL-13 production compared to native Nmb” value is recorded as “significantly greater capacity”.
As for H2N-GNLWATGHFM-NHMe, the “capacity to inhibit IL-13 production compared to native Nmb” value is recorded as “significantly greater capacity”.
For the molecule “H2N-GNLWATGHM-amide (H-GNLWATGHM-NH2) [V]”, the “capacity to inhibit IL-5 production compared to native Nmb” value is “reduced capacity” and the “capacity to inhibit IL-13 production compared to native Nmb” value is “reduced capacity”.
H2N-GNLWATHFM-amide (H-GNLWATHFM-NH2): the “capacity to inhibit IL-13 production compared to native Nmb” value is recorded as “enhanced capacity”.
Consider “H2N-GNLWTGHFM-amide (H-GNLWTGHFM-NH2) [R]”, for which the “capacity to inhibit IL-5 production compared to native Nmb” value is recorded as “reduced capacity” and the “capacity to inhibit IL-13 production compared to native Nmb” value was “enhanced capacity”.
Consider “H2N-GNWATGHFM-amide (H-GNWATGHFM-NH2) [P]”, for which the “capacity to inhibit IL-5 production compared to native Nmb” value is listed as “reduced capacity”.
Take H2N-LWATGH-amide (H-LWATGH-NH2) [AG]: the “capacity to inhibit IL-5 production compared to native Nmb” value is “significant enhanced capacity” and the “capacity to inhibit IL-13 production compared to native Nmb” value was “enhanced capacity”.
Regarding H2N-LWATGHF-amide (H-LWATGHF-NH2) [AC], the “capacity to inhibit IL-13 production compared to native Nmb” value is “enhanced capacity”.
Turning to H2N-LWATGHFM-amide (H-LWATGHFM-NH2) [Z], the “capacity to inhibit IL-13 production compared to native Nmb” value was “enhanced capacity”.
Still for that read-out and setting: under H2N-NLWATGH-amide (H-NLWATGH-NH2) [AB] stands “enhanced capacity”.
For the molecule H2N-NLWATGHF-amide (H-NLWATGHF-NH2) [Y], the “capacity to inhibit IL-5 production compared to native Nmb” value is listed as “significant enhanced capacity” and the “capacity to inhibit IL-13 production compared to native Nmb” value is recorded as “enhanced capacity”.
Regarding H2N-NLWATGHFM-amide (H-NLWATGHFM-NH2), the “capacity to inhibit IL-5 production compared to native Nmb” value is listed as “reduced capacity”.
Take H2N-WATGHF-amide (H-WATGHF-NH2) [AH]: the “capacity to inhibit IL-5 production compared to native Nmb” value is “significant enhanced capacity” and the “capacity to inhibit IL-13 production compared to native Nmb” value is on record as “enhanced capacity”.
With H2N-WATGHFM-amide (H-WATGHFM-NH2) [AD], the “capacity to inhibit IL-13 production compared to native Nmb” value is given as “enhanced capacity”.
Regarding Methanesulfonyl-GNLWATGHFM-amide [K], the “capacity to inhibit IL-5 production compared to native Nmb” value is reported as “significantly reduced capacity” and the “capacity to inhibit IL-13 production compared to native Nmb” value is listed as “significantly greater capacity”.

A further assay concerns NMBR expression by ILC2s. The assay is described as follows: NMBR expression by cultured lung ILC2s, flow cytometry. Type of assay: cell-based, mouse. Conditions: ILC2s day 7 post-Nb, IL-2 and IL-7, overnight culture. The text has this: FIG. 9. Basophils regulate NMBR expression. ILC2s were sort-purified from the lung of Nb-infected mice (day 7) and stimulated with survival cytokines (IL-7 and IL-2) and also with activated basophils, IL-4 or IL-33 overnight. NMBR expression was monitored by flow cytometric analysis post-culture. Data are presented as […] mean fluorescent intensity (GMFI). Statistical comparisons were done using a Student's t-test.
FIG. 14. Prostaglandin E2 upregulates expression of NMBR on lymphocytes. Lung ILC2s were sort-purified from the lungs of mice on day 7 post-Nb and cultured with a combination of survival cytokines (IL-2 and IL-7) and/or activating cytokines (IL-25 and IL-33). In addition, cultures were treated with NMB or prostaglandin E2 (PGE2) and the expression of NMBR was measured by flow cytometric analysis on day 4 post-culture. Statistical analysis was performed using a student's t-test. Negative NMBR staining as determined by an isotype control antibody is also shown (Isot).
NMBR expression by lung ILC2s was reduced when basophils are depleted following an Nb infection. To determine whether basophils directly mediate expression of NMBR or whether they operate through intermediate pathways, ILC2s were sort-purified from the lungs of Nb-infected mice (day 7) and cultured with the survival cytokines IL-2 and IL-7. Additionally, the ILC2s were cultured with activated basophils, IL-4, or IL-33 overnight. NMBR expression was subsequently monitored by flow cytometric analysis post-culture.
To better determine the mechanisms through which basophils regulate expression of NMBR on lymphocytes, ILC2s were cultured with a combination of survival and activating cytokines in the presence or absence of NMB or prostaglandin E2 (PGE2).
In the case of B1, the “NMBR expression levels on ILC2s” value is on record as “no changes”.
Regarding B2, the “NMBR expression levels on ILC2s” value is on record as “no changes”.

The assay is the same for the next values; noted with them: ILC2s day 7 post-Nb, survival and/or activating cytokines, day 4 post-culture.
Regarding `CCCCC[C@H](O)/C=C/[C@H]1[C@H](O)CC(=O)[C@@H]1C/C=C\CCCC(=O)O` [PGE2, prostaglandin E2, reference compound], the “NMBR expression by ILC2s” value was “significantly upregulated”.
Still for that read-out and setting: the same measure for B1: “failed to upregulate”; for B3: “failed to upregulate”.
